Experimental data: ChEMBL document CHEMBL1124714, “Synthesis and in vitro activity of stereoisomers of a novel thromboxane receptor antagonist, (+-)-(5Z)-7-[3-endo-[(phenylsulfonyl)amino]bicyclo [2.2.1]hept-2-exo-yl]heptenoic acid” (J Med Chem, 1990)

Experiments:
Assay type in all cases: functional, organism-based
[1] = organism: Rattus norvegicus; test: Inhibitory activity against rat thoracic aorta(induced by 30 nM of U-46619)
[2] = organism: Rattus norvegicus; test: Inhibitory activity against aggregation of rat washed platelets (induced by 4 ug/mL of collagen)
[3] = organism: Homo sapiens; test: Inhibitory activity against aggregation of human platelet-rich plasma(induced by 4 uM of U-46619)

SMILES | IC50 [1] | IC50 [2] | IC50 [3]
O=C(O)CCC/C=C\C[C@@H]1C2CC[C@@H](C2)[C@H]1NS(=O)(=O)c1ccccc1 | 16.9 nM | 2.9 nM | 3300 nM
O=C(O)COc1ccc(CCNS(=O)(=O)c2ccccc2)cc1 [SULOTROBAN] | 1800 nM | 260 nM | 7200 nM
O=C(O)CCC/C=C\C[C@H]1C2CC[C@@H](C2)[C@@H]1NS(=O)(=O)c1ccccc1 | 1.4 nM | 2.9 nM | 450 nM
O=C(O)CCC/C=C\C[C@@H]1C2CC[C@@H](C2)[C@@H]1NS(=O)(=O)c1ccccc1 | 37.2 nM | 4.1 nM | 2500 nM
O=C(O)CCC/C=C\C[C@@H]1[C@H](CNNC(=O)Nc2ccccc2)[C@H]2CC[C@H]1O2 |  |  | 60 nM
